What was measured:
[1] = Plasma protein bound fraction, mouse; assay type: in vitro ADME
[2] = system: brain Aβ1-42; assay: Rat time course PK/PD, oral dose, indirect response model; assay type: in vivo; conditions: Rat 3 mg/kg PO solution (predicted steady state after 3 daily doses)
[3] = Pharmacokinetics in male beagle dogs; assay type: in vivo; conditions: plasma, Dog
Protocol: Male Sprague-Dawley (SD) rats (300–350 g) were fasted overnight, and three per group received BMS-869780 either as an intravenous (IV) infusion in PEG400 : ethanol (90 : 10 w/w) at 1 mg/kg over 5 min via the jugular vein or as nanosuspension (d50 ca. 300 nm) by oral gavage at 5 mg/kg in Povidone K-30 : sodium lauryl sulfate : water (2.5 : 0.12 : 97.38 w/w/w/w). For the IV infusion, serial blood samples were obtained before dose and at 0.17, 0.25, 0.5, 0.75, 1, 2, 4, 6, 8, and 24 hours after dose. For the PO nanosuspension, serial blood samples were obtained before dose and at 0.25, 0.5, 0.75, 1, 2, 4, 6, 8, and 24 h after dose. Blood samples, ~0.3 mL, for all studies were collected from the jugular vein into K3EDTA-containing tubes and then centrifuged at 4°C (1500–2000 ×g) to obtain plasma, which was stored at −20°C until analysis by LC/MS/MS. In male beagle dogs, the PK of BMS-869780 was evaluated in a cross-over study design with a one-week washout between treatments. Dogs were fasted overnight, and three animals (9.5 to 10.7 kg) received BMS-869780 by IV infusion at 1 mg/kg over 5 minutes in PEG400 : ethanol (90 : 10 w/w) or as nanosuspension (d50 ca. 300 nm) by oral gavage at 5 mg/kg in Povidone K-30 : sodium lauryl sulfate : water (2.5 : 0.12 : 97.38 w/w/w/w). Serial blood samples (~0.3 mL) were collected from a saphenous vein into K3EDTA-containing tubes before dose and at 0.083, 0.17, 0.25, 0.5, 0.75, 1, 2, 4, 6, 8, and 24 hours after IV dose, and 0.25, 0.5, 0.75, 1, 2, 4, 6, 8, and 24 hours after oral dose, followed by centrifugation at 4°C (1500 to 2000 ×g) to obtain plasma. Samples were stored at −20°C until analysis of BMS-869780 levels by LC-MS/MS. In male cynomolgus monkeys, the PK of BMS-869780 was evaluated in a cross-over study design with a 1-week washout between treatments. Following an overnight fast, three animals (4.5 to 8 kg) received BMS-869780 by IV infusion via a femoral vein at 1 mg/kg over 10 minutes in PEG400 : ethanol (90 : 10), or by oral gavage at 5 mg/kg in Povidone K-30 : sodium lauryl sulfate : water (2.5 : 0.12 : 97.38). Serial blood samples, ~0.3 mL, were collected from a femoral artery into K3EDTA-containing tubes before dose and at 0.083, 0.17, 0.25, 0.5, 0.75, 1, 2, 4, 6, 8, and 24 hours after IV dose, and 0.25, 0.5, 0.75, 1, 2, 4, 6, 8, and 24 hours after oral dose, followed by centrifugation at 4°C (1500 to 2000 ×g) to obtain plasma. Samples were stored at −20°C until analysis of BMS-869780 levels by LC-MS/MS. The PK parameters of BMS-869780 were obtained by noncompartmental analysis of plasma concentration versus time data (WinNonlin software, Version 5.0; Pharsight Corporation, Mountain View, CA). The peak concentration (C max) and time for C max (T max) were recorded directly from experimental observations. The area under the curve from time zero to the last sampling time (AUC^0-T) and the area under the curve from time zero to infinity (AUC^INF) were calculated using a combination of linear and log trapezoidal summations. The total plasma clearance (CLTp), steady-state volume of distribution (Vss), apparent elimination half-life (T 1/2), and mean residence time (MRT) were estimated after IV administration. The absolute oral bioavailability (F) was estimated as the ratio of dose-normalized AUC values following oral and IV doses.
Figure 9 Pharmacokinetics (PK) of BMS-869780 across species for prediction of human PK. Rats, dogs, and cynomolgus monkeys were dosed with BMS-869780 intravenously (IV ▲) at 1 mg/kg or oral nanosuspension (PO ●) at 5 mg/kg. Plasma concentrations of BMS-869780 were determined for up to 24 hours after the dose. (a) Rat. (b) Dog. (c) Cynomolgus monkey.

## COc1cc(Nc2nc3n(n2)CCCC[C@H]3c2ccc(F)cc2)ccc1-n1cnc(Cl)c1 [BMS-869780]
[1]
  protein bound fraction: 99.6%
[2]
  Brain Aβ ABEC 24 hr Aβ1-42: 26.9%
  Plasma AUC 0–24 hr: 18.6 µM·h
[3]; IV 1 mg/kg
  AUC(0-t): 6.64 ± 2.26 µM·h
  MRT: 6.6 ± 2 h
  clearance: 5.7 ± 1.7 mL/min/kg
  half-life: 5.2 ± 1.4 h
[3]; IV 1 mg/kg, read-out: Vss
  Vd: 2.2 ± 0.8 L/kg
[3]; PO suspension 5 mg/kg
  AUC(0-t): 4.55 ± 2.16 µM·h
  Cmax: 487 ± 155 nM
  Tmax: 1.7 ± 0.6 h
  bioavailability: 13%

From publication PMC4109680, “Identification and Preclinical Pharmacology of the γ-Secretase Modulator BMS-869780” (International Journal of Alzheimer's Disease, 2014)
